System: N-Myc-Max transcription activity (LNCaP-NMYC cells)
Test: Myc transcription assay (Cignal Myc reporter, luciferase) in LNCaP-NMYC cells
Format: cell-based
Design: 10 uM corrected / 5uM corrected: unit not given here
Details: for inhibition at 5 µM / inhibition at 10 µM: 24 h; for inhibition at 5 µM / inhibition at 10 µM / transcription inhibition activity (in words) / transcription inhibition activity at 5 µM (in words): LNCaP-NMYC; for inhibition at 5 µM: read-out: % Transcript Inhibition (5 µM); for inhibition at 10 µM: read-out: % Transcript Inhibition (10 µM); for IC50: Homo sapiens, LNCaP, Table 2, transcriptional assay in LNCaP cells overexpressing N-Myc, read-out: IC50; for transcription inhibition activity (in words): screened at 10 µM and 5 µM; for 5uM corrected / 10 uM corrected: sheet 181_set
Method: To determine the optimal substitutions on the free phenyl ring, we used the active scaffold for a second substructure search against the ZINC15 database to identify a set of 181 analogues for further validation (VPC-70617 to -70799, presented in Supplementary Table S1). Compounds were tested for their inhibition of a N-Myc-Max luciferase transcription activity assay at 5 and 10 µM Figure 2a. Herein, we inspected all the proposed substitutions on the scaffold to discern the features required to construct a possible SAR model for inhibitors targeting N-Myc-Max/DBD complex (Figure 2b).
LNCaP-NMYC cells were transfected using TransIT-2020 transfection reagents per the manufacturer’s protocol. Cells were plated at a density of 10,000 cells per well of a 96-well plate. Following 24 h treatment with 5 µM or 10 µM of the compounds, the Myc reporter activity was measured using the Cignal Myc Reporter Assay Kit from Qiagen (#336841) (Hilden, Germany) per the manufacturer’s instructions.

IC50 [µM] | SMILES | inhibition at 5 µM [%] | inhibition at 10 µM [%] | transcription inhibition activity (in words) | 5uM corrected | 10 uM corrected | transcription inhibition activity at 5 µM (in words)
8 | C#Cc1ccc(C(=O)NNc2ccc(C#N)cc2C(F)(F)F)cc1 [compound 70582] | 44 | 84 |  |  |  | 
> 20 | O=C(NNc1ccc(C(F)(F)F)cc1)c1ccc(C(F)(F)F)cc1 [compound 70583] | 8 | 28 |  |  |  | 
> 20 | N#Cc1ccc(C(=O)NNc2ccc(C(F)(F)F)cc2)cc1 [compound 70584] | 34 | 30 |  |  |  | 
> 20 | O=C(NNc1ccccc1F)c1ccc(C(F)(F)F)cc1 [compound 70585] | 16 | 24 |  |  |  | 
> 20 | N#Cc1ccc(NNC(=O)c2ccc(C(F)(F)F)cc2)cc1 [compound 70586] | 28 | 34 | significantly reduced inhibition activity |  |  | 
 | N#Cc1ccc(NNC(=O)c2ccc(C#N)cc2)cc1 [compound 70587] | -58 | 14 |  |  |  | 
 | N#Cc1ccc(NNC(=O)c2ccc(OC(F)F)cc2)c(C(F)(F)F)c1 [compound 70588] | 32 | 46 |  |  |  | 
3 | N#Cc1ccc(NNC(=O)c2ccc(I)cc2)c(C(F)(F)F)c1 [compound 70589] | 64 | 94 |  |  |  | 
15 | C=Cc1ccc(C(=O)NNc2ccc(C#N)cc2C(F)(F)F)cc1 [compound 70590] | 38 | 62 |  |  |  | 
25 | N#Cc1ccc(NNC(=O)c2ccc(F)cc2)c(C(F)(F)F)c1 [compound 70591] | 18 | 64 |  |  |  | 
12 | N#Cc1ccc(C(=O)NNc2ccc(C#N)cc2C(F)(F)F)cc1 [compound 70593] | -26 | 70 | significantly more active |  |  | 
 | CC(C)(C#N)c1ccc(C(=O)NNc2ccc(C#N)cc2C(F)(F)F)cc1 [compound 70594] | 22 | 10 |  |  |  | 
12 | CC(C)c1ccc(C(=O)NNc2ccc(C#N)cc2C(F)(F)F)cc1 [compound 70595] | 30 | 70 |  |  |  | 
2 | N#Cc1ccc(NNC(=O)c2cccc(C(F)(F)F)c2)c(C(F)(F)F)c1 [compound 70596] | 96 | 94 | significantly more active |  |  | 
3 | N#Cc1ccc(NNC(=O)c2ccc(Cl)cc2)c(C(F)(F)F)c1 [compound 70599] | 96 | 78 | significantly more active |  |  | 
 | Cc1ccc(C(=O)NNc2ccc(C#N)cc2C(F)(F)F)cc1 [compound 70600] | -22 | 10 |  |  |  | 
 | N#Cc1ccc(NNC(=O)c2ccc(C(N)=O)cc2)c(C(F)(F)F)c1 [compound 70601] | 16 | -12 |  |  |  | 
 | N#Cc1ccc(NNC(=O)c2ccc(Br)cc2)c(C(F)(F)F)c1 [compound 70602] | 12 | 48 |  |  |  | 
> 20 | N#Cc1ccc(NNC(=O)c2ccccc2)c(C(F)(F)F)c1 [compound 70603] | -30 | -12 |  |  |  | 

IC50 [µM] | SMILES | inhibition at 5 µM [%] | inhibition at 10 µM [%] | transcription inhibition activity (in words) | 5uM corrected | 10 uM corrected | transcription inhibition activity at 5 µM (in words)
 | CN(C)c1ccc(C(=O)NNc2ccc(C#N)cc2C(F)(F)F)cc1 [compound 70605] | -74 | 26 |  |  |  | 
 | CC(F)(F)c1ccc(C(=O)NNc2ccccc2C(F)(F)F)cc1 [compound 70606] | 0 | -10 |  |  |  | 
 | CC(F)(F)c1ccc(C(=O)NNc2ccc(C#N)cc2)cc1 [compound 70607] | -20 | -8 |  |  |  | 
 | CC(F)(F)c1ccc(C(=O)NNc2ccc(C#N)cc2C(F)(F)F)cc1 [compound 70608] | -14 | 38 |  |  |  | 
 | O=C(NNc1ccccc1C(F)(F)F)c1ccc(F)cc1 [compound 70609] | 20 | 12 |  |  |  | 
> 20 | O=C(NNc1ccccc1C(F)(F)F)c1ccc(C(F)(F)F)cc1 [compound 70611] | -28 | 4 | significantly reduced inhibition activity |  |  | 
 | Cc1cc(C(=O)NNc2ccc(C#N)cc2C(F)(F)F)ccc1Cl [compound 70617] |  |  |  | 4 | 96 | did not impart any inhibitory activity
 | N#Cc1ccc(NNC(=O)c2ccc(Cl)cc2Cl)c(C(F)(F)F)c1 [compound 70624] |  |  | abolished inhibitory activity | 8 | 78 | 
 | Cc1ccc(C(=O)NNc2ccc(C#N)cc2C(F)(F)F)cc1Cl [compound 70628] |  |  | lower transcription inhibition or no activity at all | 8 | 90 | 
 | Cc1cc(C)cc(C(=O)NNc2ccc(C#N)cc2C(F)(F)F)c1 [compound 70651] |  |  | no activity | -32 | 0 | 
 | N#Cc1ccc(NNC(=O)c2ccc(C#N)c(O)c2)c(C(F)(F)F)c1 [compound 70673] |  |  |  | -56 | -38 | 
 | N#Cc1ccc(NNC(=O)c2ccccc2Cl)c(C(F)(F)F)c1 [compound 70701] |  |  | declined considerably or was lost completely | -28 | 6 | 
 | N#Cc1ccc(NNC(=O)c2ccccc2I)c(C(F)(F)F)c1 [compound 70702] |  |  | declined considerably or was lost completely | -10 | 10 | 
 | N#Cc1ccc(NNC(=O)c2ccccc2F)c(C(F)(F)F)c1 [compound 70709] |  |  | declined considerably or was lost completely | 0 | -10 | 
 | CS(=O)(=O)c1cc(C(=O)NNc2ccc(C#N)cc2C(F)(F)F)ccc1Cl [compound 70721] |  |  |  | -42 | 2 | did not impart any inhibitory activity
 | N#Cc1ccc(NNC(=O)c2cccc(Br)c2)c(C(F)(F)F)c1 [compound 70754] |  |  | better inhibition activity | 94 | 60 | 
 | Cc1ccc(C(=O)NNc2ccc(C#N)cc2C(F)(F)F)cc1F [compound 70765] |  |  | lower transcription inhibition or no activity at all | 30 | 54 | 
 | N#Cc1ccc(NNC(=O)c2cc(F)c(F)cc2F)c(C(F)(F)F)c1 [compound 70772] |  |  | nullified activity | 22 | 94 | 

SMILES | IC50 [µM] | inhibition at 5 µM [%] | inhibition at 10 µM [%] | transcription inhibition activity (in words) | 5uM corrected | 10 uM corrected | transcription inhibition activity at 5 µM (in words)
N#Cc1ccc(NNC(=O)c2ccc(C(F)(F)F)cc2)c(C(F)(F)F)c1 [compound 70597] | 12 | 26 | 82 |  |  |  | 
